# Tested on: C57BL/6 mice
# Test: Serum cytokine levels in C57BL/6 mice after i.v. injection (Luminex)
# Assay type: in vivo
# Conditions: 0.1 micromole SM-360320 or equivalent amount UC-1V150/MSA (500 μg MSA per mouse), FIG. 5
# Procedure: FIGS. 5A, 5B, 5C, and 5D illustrate the increased potency and duration of effect of UC-1V150/MSA. C57BL/6 mice were injected (i.v.) with (A) 0.1 micromole of SM-360320, a TLR7 ligand, or (B) equivalent amount of a TLR7 agonist UC-1V150 (aldehyde-modified SM-360320) or UC-1V150/MSA to 500 μg MSA per mouse. Serum samples were collected at the indicated time points and cytokine levels were analyzed by Luminex. MSA=mouse serum albumin. The effect from the original TLR7 ligand, SM-360320, lasted for only 2 hours whereas UC-1V150/MSA has extended the effect to at least 6 hours.
# FIGS. 7A and 7B illustrates an increased potency of UC-1V150/MSA. C57BL/6 mice were i.v. injected with 380 nmole of SM-360320 or UC-1V150, or 500 μg of UC-1V150/MSA (equivalent to 3.8 nmole UC-1V150) per mouse. Serum samples were collected after 2 h and cytokine levels were analyzed by Luminex. To achieve the similar effect, at least 100-fold higher concentration of either UC-1V150 or SM-360320 was required as compared to that of UC-1V150/MSA.
compound,measurement,value
COCCOc1nc(N)c2[nH]c(=O)n(Cc3ccccc3)c2n1 [SM-360320],duration of effect (serum cytokine levels),2 h
